Data on 17 compounds can be found in patent US6911477B2, “Muscarinic receptor agonists” (Pfizer Inc., priority 1996, dated 2005).

Counter-ions that a name gives are not always drawn.

Test system in one data set: not given
Assay: not given
Details: not given
As to `c1ccc(N=C(NC(=Nc2ccccc2)N2CCCCCCC2)c2ccccc2)cc1` (as salt: hydroiodid) [Example 22, N-(azocan-1-yl-phenylimino-methyl)-N′-phenyl-benzamidine], the melting point (commonly the temperature, or range, at which the solid turns liquid) is 252 to 253 °C (dec.). `Cc1ccccc1C(=Nc1ccccc1)NC(=Nc1ccccc1)N1CCC(O)CC1` (as salt: hydrochloride) [Example 24, N-[(4-hydroxy-piperidin-1-yl)-phenylimino-methyl]-2-methyl-N′-phenyl-benzamidine] returned a melting point of 218 to 220 °C. On the same count and under the same terms, the figure for `Cc1cccc(C)c1C(=NC(=Nc1ccccc1)N1CCC(=O)CC1C)Nc1ccc(F)cc1` (stereo not drawn) (as salt: hydrochloride) [Example 65, N-(4-fluoro-phenyl)-2,6-dimethyl-N′-[(2-methyl-4-oxo-piperidin-1-yl)-phenylimino-methyl]-benzamidine] is 215 to 217 °C; for `Cc1cccc(C)c1C(=Nc1ccc(F)cc1)NC(=Nc1cccc(N)c1)N1CCCCC1C` (stereo not drawn) (as salt: hydrochloride) [Example 70, N-[(3-amino-phenylimino)-(2-methyl-piperidin-1-yl)-methyl]-N′-(4-fluoro-phenyl)-2,6-dimethyl-benzamidine] it is 210 to 213 °C. `Cc1ccccc1C(=Nc1ccccc1)NC(=Nc1ccc(F)cc1)N1CCC(O)CC1` (as salt: hydrochloride) [Example 29, N-[(4-fluoro-phenylimino)-(4-hydroxy-piperidin-1-yl)-methyl]-2-methyl-N′-phenyl-benzamidine] displayed a melting point of 224 to 225 °C. On to `Cc1cccc(C)c1C(=Nc1ccc(F)cc1)NC(=Nc1ccccc1Cl)N1CCCCC1C` (stereo not drawn) (as salt: hydrochloride) [Example 85, N-[(2-chloro-phenylimino)-(2-methyl-piperidin-1-yl)-methyl]-N′-(4-fluoro-phenyl)-2,6-dimethyl-benzamidine], for which the melting point was in the range of 207 to 209 °C. Regarding `CC1CCCN(C(=Nc2ccccc2)NC(=Nc2ccccc2)c2ccccc2)C1` (stereo not drawn) (as salt: hydroiodid) [Example 23, N-[(3-methyl-piperidin-1-yl)-phenylimino-methyl]-N′-phenyl-benzamidine], the melting point was 179 to 182 °C (dec.). `Cc1ccccc1N=C(N=C(Nc1ccc(F)cc1)c1c(C)cccc1C)N1CCCCC1C` (stereo not drawn) (as salt: hydrochloride) [Example 84, N-(4-fluoro-phenyl)-2,6-dimethyl-N′-[(2-methyl-piperidin-1-yl)-o-tolylimino-methyl]-benzamidine] gave a melting point of 206 to 208 °C. As to `Cc1cccc(C)c1C(=NC(=Nc1ccccc1)N1CCOCC1)Nc1ccc(F)cc1` (as salt: hydrochloride) [Example 76, N-(4-fluoro-phenyl)-2,6-dimethyl-N′-(morpholin-4-yl-phenylimino-methyl)-benzamidine], the melting point was 249 to 251 °C (dec.).

As for `Cc1cccc(C)c1C(=Nc1ccc(F)cc1)NC(=Nc1ccc(N)cc1)N1CCCCC1C` (stereo not drawn) (as salt: hydrochloride) [Example 64, N-[(4-amino-phenylimino)-(2-methyl-piperidin-1-yl)-methyl]-N′-(4-fluoro-phenyl)-2,6-dimethyl-benzamidine], the melting point was 179 to 181 °C. As to `Fc1ccc(N=C(NC(=Nc2ccccc2)N2CCCCCC2)c2ccccc2)cc1` (as salt: hydroiodid) [Example 19, N-(azepan-1-yl-phenylimino-methyl)-N′-(4-fluoro-phenyl)-benzamidine], the melting point is > 228 °C (dec.). On the same count and under the same terms, the figure for `Cc1ccccc1C(=CC(=NC1CCCCC1)N1CCCCC1C)Nc1ccc(F)cc1` (stereo not drawn) (as salt: hydrochloride) [Example 100, [3-cyclohexylimino-3-(2-methyl-piperidin-1-yl)-1-o-tolyl-propenyl]-(4-fluoro-phenyl)-amine] is > 125 °C (dec.); for `CC1CCCCN1C(=Nc1ccccc1)NC(=Nc1ccccc1)c1ccccc1` (stereo not drawn) (as salt: hydroiodid) [Example 3, N-[(2-Methyl-piperidin-1-yl)-phenylimino-methyl]-N′-phenyl-benzamidine] it is 219 to 221 °C (dec.); for `Fc1ccccc1C(=Nc1ccccc1)NC(=Nc1ccccc1)N1CCCC1` (as salt: nitrate) [Example 39, N-[(2-fluoro-phenyl)-phenylimino-methyl]-N′-phenyl-pyrrolidine-1-carboxamidine] it is 194 to 196 °C. `CCC1CCCCN1C(=Nc1ccccc1)NC(=Nc1ccc(F)cc1)c1c(C)cccc1C` (stereo not drawn) (as salt: hydrochloride) [Example 58, N-[(2-ethyl-piperidin-1-yl)-phenylimino-methyl]-N′-(4-fluoro-phenyl)-2,6-dimethyl-benzamidine]: the melting point was 137 to 139 °C (dec.). `Cc1cccc(C)c1C(=NC(=Nc1ccccc1)N1CCC(O)CC1)Nc1ccc(F)cc1` (as salt: hydrochloride) [Example 9, N-(4-Fluoro-phenyl)N′-[(4-hydroxy-piperidin-1-yl)-phenylimino-methyl]-2,6-dimethyl-benzamidine] registered a melting point of 163 to 165 °C.

The next data set deals with T1, human m4 receptor (Homo sapiens, UniProt P08173).
T1 construct: host or cells: CHO-K1
T1 sequence (P08173 1-479): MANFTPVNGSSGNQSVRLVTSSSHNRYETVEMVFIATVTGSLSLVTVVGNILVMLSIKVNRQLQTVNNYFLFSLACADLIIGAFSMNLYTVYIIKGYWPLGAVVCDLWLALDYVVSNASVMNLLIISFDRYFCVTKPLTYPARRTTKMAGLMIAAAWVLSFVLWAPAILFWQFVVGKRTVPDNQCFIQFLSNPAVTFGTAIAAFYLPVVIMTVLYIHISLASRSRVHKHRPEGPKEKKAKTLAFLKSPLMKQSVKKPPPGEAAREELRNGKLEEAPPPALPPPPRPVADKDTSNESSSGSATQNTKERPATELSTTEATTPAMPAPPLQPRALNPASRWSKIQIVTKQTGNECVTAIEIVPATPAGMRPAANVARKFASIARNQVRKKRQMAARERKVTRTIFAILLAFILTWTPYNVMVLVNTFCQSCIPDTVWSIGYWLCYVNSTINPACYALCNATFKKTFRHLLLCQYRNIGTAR
The experiment in a line: inhibition of forskolin-stimulated cAMP accumulation, m4 receptor. In kind it is cell-based. The conditions noted are these: standard agonist, typical value, 5 μM forskolin. The source says:
(§1) Activity of the compounds of formula I for muscarinic receptors can be determined according to the following protocol. Chinese hamster ovary cells (CHO-K1) stably transformed to express human m1-m5 receptors can be obtained from Dr. Tom Bonner (Laboratory of Cell Biology, National Institute of Mental Health, Building 36, Rm 3A-17, National Institute of Health, Bethesda, Md. 20892). Cells are maintained in Dulbecco's Modified Eagle Medium containing 10% fetal calf serum and harvested at confluence by brief incubation in Ca^++/Mg^++-free phosphate-buffered saline containing 4 mM EDTA.
(§2) Functional responses at m2 and m4 receptors can be determined by measuring inhibition of forskolin-stimulated cAMP accumulation. Harvested cells are preincubated (15 minutes at 20-22° C.) with 3-isobutyl-1-methyl-xanthine (IBMX; 0.2 mM) and then incubated (10 minutes at 20-22° C.) in a HEPES-buffered Krebs solution with test compounds in the presence of 5 μM forskolin. The reaction is stopped by the addition of 10 N acetic acid and the cAMP content of dried supernatants is determined using a scintillation proximity assay (Amersham).
Consider `C[N+](C)(C)CCOC(N)=O` [Carbachol], for which the “inhibition of the forskolin-stimulated cAMP levels” value was 60-80%.

The target in the next data set is T2, human m2 receptor (Homo sapiens, UniProt P08172).
T2 sequence (P08172 1-466): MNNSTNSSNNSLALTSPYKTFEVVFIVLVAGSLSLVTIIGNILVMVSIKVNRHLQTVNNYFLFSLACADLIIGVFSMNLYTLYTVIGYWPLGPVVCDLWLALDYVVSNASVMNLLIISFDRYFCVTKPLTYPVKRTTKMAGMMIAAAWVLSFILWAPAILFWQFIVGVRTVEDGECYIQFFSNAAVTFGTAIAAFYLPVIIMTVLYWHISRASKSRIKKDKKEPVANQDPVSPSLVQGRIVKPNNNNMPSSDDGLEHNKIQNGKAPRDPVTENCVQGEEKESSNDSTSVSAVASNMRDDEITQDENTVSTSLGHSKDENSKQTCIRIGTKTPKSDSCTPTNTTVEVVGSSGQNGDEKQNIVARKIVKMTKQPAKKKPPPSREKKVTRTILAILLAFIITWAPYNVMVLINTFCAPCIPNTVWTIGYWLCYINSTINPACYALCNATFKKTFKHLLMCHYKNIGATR
The experiment in a line: inhibition of forskolin-stimulated cAMP accumulation, m2 receptor. In kind it is cell-based. Particulars: standard agonist, typical value, 5 μM forskolin.
Excerpt: as §1, §2
On to `C[N+](C)(C)CCOC(N)=O` [Carbachol], for which the “inhibition of the forskolin-stimulated cAMP levels” value is listed as 60-80%.
